The results in this text go back to US8383643B2, “Spiro compounds useful as inhibitors of stearoyl-coenzyme A delta-9 desaturase” (Merck Canada Inc., priority 2009, dated 2013).

The assay concerns the target T1, human SCD1 (Homo sapiens, UniProt O00767).
T1 construct: made in house; host or cells: baculovirus/Sf9
T1 sequence (O00767 1-359): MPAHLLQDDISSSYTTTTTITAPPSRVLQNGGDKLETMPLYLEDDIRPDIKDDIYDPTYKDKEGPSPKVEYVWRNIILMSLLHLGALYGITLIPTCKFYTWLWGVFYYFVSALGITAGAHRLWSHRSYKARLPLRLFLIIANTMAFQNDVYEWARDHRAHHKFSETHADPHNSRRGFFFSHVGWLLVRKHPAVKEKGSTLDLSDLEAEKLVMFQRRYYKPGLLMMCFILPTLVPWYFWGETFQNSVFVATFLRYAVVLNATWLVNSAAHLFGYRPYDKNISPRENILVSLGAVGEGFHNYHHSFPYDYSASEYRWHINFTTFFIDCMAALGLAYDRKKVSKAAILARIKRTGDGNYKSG
The assay can be described thus: SCD enzyme activity assay, reconstituted human SCD1 desaturase system ([3H]-stearoyl-CoA conversion). Format: biochemical. As to conditions: read-out: IC50 hSCD-1. How it is done: The potency of compounds of formula I against the stearoyl-CoA desaturase was determined by measuring the conversion of radiolabeled stearoyl-CoA to oleoyl-CoA using rat liver microsome or human SCD1 following previously published procedures with some modifications (Joshi, et al., J. Lipid Res., 18: 32-36 (1977); Talamo, et al., Anal. Biochem, 29: 300-304 (1969)). Liver microsome was prepared from male Wistar or Sprague Dawley rats on a high carbohydrate diet for 3 days (LabDiet #5803, Purina). The livers were homogenized (1:10 w/v) in a buffer containing 250 mM sucrose, 1 mM EDTA, 5 mM DTT and 50 mM Tris-HCl (pH 7.5). After a 100,000×g centrifugation for […], the liver microsome pellet was suspended in a buffer containing 100 mM sodium phosphate, 20% glycerol, 2 mM DTT, and stored at −78° C. Human SCD1 desaturase system was reconstituted using human SCD1 from a baculovirus/Sf9 expression system, cytochrome B5 and cytochrome B5 reductase. Typically, test compound in 2 μL DMSO was incubated for […] at room temperature with 180 μL of the SCD enzyme in a buffer containing 100 mM Tris-HCl (pH 7.5), ATP (5 mM), Coenzyme-A (0.1 mM), Triton X-100 (0.5 mM) and NADH (2 mM). The reaction was initiated by the addition of 20 μL of [^3H]-stearoyl-CoA (final concentration=2 μM, radioactivity concentration=1 μCi/mL). After 10 min, the reaction mixture (80 μL) was mixed with a calcium chloride/charcoal aqueous suspension (100 μL charcoal (10% w/v) plus 25 μL CaCl2 (2N). After centrifugation to precipitate the radioactive fatty acid species, tritiated water released from 9,10-[^3H]-stearoyl-CoA by the SCD enzyme was quantified on a scintillation counter.
Turning to `O=C(O)Cn1nnc(-c2cnc(N3CCC4(C=C(c5ccc(OC(F)(F)F)cc5)c5ccccc5O4)CC3)s2)n1` [Example 3, [5-(2-{-4-[4-(Trifluoromethoxy)phenyl]-1′H-spiro[chromene-2,4′-piperidin]-1′-yl}-1,3-thiazol-5-yl)-2H-tetrazol-2-yl]acetic acid], the IC50 came out at 1.1 nM. In the case of “(5-{5-[4-(2-Chlorophenyl)-1′H-spiro[chromene-2,4′-piperidin]-1′-yl]-1,3,4-thiadiazol-2-yl}-2H-tetrazol-2-yl)acetic acid [Example 2]”, the IC50 turned out to be 0.61 nM.

Consider “(5-{2-[4-(2,4-Dichlorophenyl)-1′H-spiro[chromene-2,4′-piperidin]-1′-yl]-1,3-thiazol-5-yl}-2H-tetrazol-2-yl)acetic acid [Example 5]”, for which the half-inhibitory concentration (IC50) was 1.1 nM. Consider “(5-{5-[4-(2-Chlorophenyl)-1′H-spiro[chromene-2,4′-piperidin]-1′-yl]-1,3,4-thiadiazol-2-yl}-2H-tetrazol-2-yl)acetic acid [Example 4]”, for which the IC50 was 2 nM.

As to “2-(5-(5-(4-(4-Fluorophenyl)spiro[chromene-2,4′-piperidine]-1′-yl)-1,3,4-thiadiazol-2-yl)-2H-tetrazol-2-yl)acetic acid [Example 7]”, the concentration for half-maximal inhibition (IC50) stood at 0.97 nM. For the compound “2-(5-(2-(4-(4-Fluorophenyl)spiro[chromene-2,4′-piperidine]-1′-yl)thiazol-5-yl)-2H-tetrazol-2-yl)acetic acid [Example 6]”, the IC50 is 1.3 nM. On to “(5-{2-[4-(2-Chlorophenyl)-1′H-spiro[chromene-2,4′-piperidin]-1′-yl]-1,3-thiazol-5-yl}-2H-tetrazol-2-yl)acetic acid [Example 1]”, for which the IC50 is 0.92 nM.
